# Laboratory results: PMC7835349 (Communications Biology, 2021)
# “And” between values parts separate entries of the source, which are not always exact repeats. Equal entries are not always repeated.
# Test system: telemetered dogs
# Test: Conscious dog telemetry (QRS amplitude and other cardiovascular parameters, tolerability)
# Conditions: dog, 0.85 mg/kg 0.5h infusion, 0.85 mg/kg
smiles,measurement,setting,value
CN(CCO)CCC(CSc1ccccc1)Nc1ccc(S(=O)(=O)NC(=O)c2ccc(N3CCC(C(O)c4ccccc4-c4ccc(Cl)cc4)CC3)cc2)cc1S(=O)(=O)C(F)(F)F (centres unmarked) [AZD4320],ECG PR interval,1.5 h,117 ms and 112 ms
same,ECG QRS duration,1.5 h,44 ms and 39 ms and 40 ms
same,Left ventricular -dP/dt (mmHg/s),1.5 h,3030 mmHg/s and 3166 mmHg/s
same,QRS amplitude (% baseline),1.5 h,78 % baseline and 86 % baseline
same,Systolic blood pressure (mmHg),1.5 h,147 mmHg and 138 mmHg
same,ECG PR interval,2 h,111 ms and 87 ms
same,ECG QRS duration,2 h,42 ms and 36 ms and 39 ms
same,Left ventricular -dP/dt (mmHg/s),2 h,2904 mmHg/s and 3371 mmHg/s
same,QRS amplitude (% baseline),2 h,75 % baseline and 83 % baseline
same,Systolic blood pressure (mmHg),2 h,144 mmHg and 171 mmHg
same,ECG PR interval,3 h,99 ms and 81 ms
same,ECG QRS duration,3 h,37 ms and 33 ms
same,QRS amplitude (% baseline),3 h,59 % baseline and 60 % baseline
same,Systolic blood pressure (mmHg),3 h,142 mmHg and 156 mmHg
same,ECG PR interval,4 h,93 ms and 79 ms
same,ECG QRS duration,4 h,36 ms and 33 ms
same,QRS amplitude (% baseline),4 h,56 % baseline and 60 % baseline
same,Systolic blood pressure (mmHg),4 h,128 mmHg and 137 mmHg
same,ECG PR interval,6 h,89 ms and 79 ms
same,ECG QRS duration,6 h,37 ms and 35 ms
same,Left ventricular -dP/dt (mmHg/s),6 h,2074 mmHg/s and 2402 mmHg/s
same,QRS amplitude (% baseline),6 h,67 % baseline and 70 % baseline
same,Systolic blood pressure (mmHg),6 h,116 mmHg and 117 mmHg
same,ECG PR interval,8 h,88 ms and 83 ms
same,ECG QRS duration,8 h,37 ms and 34 ms
same,Left ventricular -dP/dt (mmHg/s),8 h,2367 mmHg/s and 2612 mmHg/s
same,QRS amplitude (% baseline),8 h,78 % baseline and 80 % baseline
same,Systolic blood pressure (mmHg),8 h,120 mmHg and 124 mmHg
same,ECG PR interval,12 h,85 ms
same,ECG QRS duration,12 h,40 ms and 36 ms
same,Left ventricular -dP/dt (mmHg/s),12 h,3043 mmHg/s and 2589 mmHg/s
same,QRS amplitude (% baseline),12 h,84 % baseline and 70 % baseline
same,Systolic blood pressure (mmHg),12 h,128 mmHg and 131 mmHg
same,ECG PR interval,16 h,102 ms and 87 ms
same,ECG QRS duration,16 h,42 ms and 37 ms
same,Left ventricular -dP/dt (mmHg/s),16 h,3119 mmHg/s and 2829 mmHg/s
same,QRS amplitude (% baseline),16 h,98 % baseline and 70 % baseline
same,Systolic blood pressure (mmHg),16 h,130 mmHg and 147 mmHg
same,ECG PR interval,22 h,112 ms and 84 ms
same,ECG QRS duration,22 h,44 ms and 36 ms
same,Left ventricular -dP/dt (mmHg/s),22 h,3111 mmHg/s and 3851 mmHg/s
same,QRS amplitude (% baseline),22 h,101 % baseline and 78 % baseline
same,Systolic blood pressure (mmHg),22 h,132 mmHg and 149 mmHg
same,ECG PR interval,-0.75 h,111 ms and 99 ms
same,ECG QRS duration,-0.75 h,45 ms and 39 ms
same,Left ventricular -dP/dt (mmHg/s),-0.75 h,3973 mmHg/s and 3847 mmHg/s and 2891 mmHg/s
same,QRS amplitude (% baseline),-0.75 h,100 % baseline and 105 % baseline and 103 % baseline
same,Systolic blood pressure (mmHg),-0.75 h,162 mmHg and 159 mmHg
same,ECG PR interval,-1 h,108 ms and 98 ms
same,ECG QRS duration,-1 h,44 ms and 36 ms and 39 ms
same,Left ventricular -dP/dt (mmHg/s),-1 h,3612 mmHg/s and 3810 mmHg/s and 3070 mmHg/s
same,QRS amplitude (% baseline),-1 h,101 % baseline and 100 % baseline and 107 % baseline
same,Systolic blood pressure (mmHg),-1 h,149 mmHg and 163 mmHg
